1 compound from US9239334B2, “Fatty acid C16: 1N7-palmitoleate a lipokine and biomarker for metabolic status” (PRESIDENT AND FELLOWS OF HARVARD COLLEGE, priority 2008, dated 2016) can be followed below.

Assay [1] concerns insulin receptor, IRS-1, IRS-2 and AKT phosphorylation in liver. Briefly: Insulin signaling in liver of lipid-infused mice (immunoblotting). The class given is in vivo. The settings on record: fatty acid:palmitoleate infusion 3.3 μl/min. An excerpt: (§1) FIGS. 7A-7G show data on the regulation of insulin signaling and glucose metabolism by palmitoleate. FIG. 7A is the basal and insulin-stimulated phosphorylation of insulin receptor (IR), insulin receptor substrate-1 (IRS-1) and -2 (IRS-2) and AKT in liver of mice infused with vehicle (Veh), TG:palmitoleate (C16:1n7) or TG:palmitate (C16). Representative blots are shown and quantifications on the right are averaged results of three mice in each treatment group. […] Representative blots are shown and quantifications on the right are averaged results of three mice in each treatment group.
The left panel presents the insulin-stimulated phosphorylation of insulin receptor and AKT in liver of mice infused with vehicle or palmitoleate. […] Mice were infused with vehicle or palmitoleate at 3.3 μl/min for six hrs, and insulin (1 U/Kg) was injected through the infusing tubing. Three minutes after insulin injection, tissues were collected and immunoblotting analyses were performed.
The present invention also provides for the regulation of insulin action by increased circulating palmitoleate. To study whether palmitoleate regulates systemic metabolic responses, lipid infusions were administered in conscious mice. Lipid infusion has been used widely to investigate the relationship between plasma FFAs and insulin resistance, but almost all studies using this protocol utilized preparations of natural lipid products containing a variety of fatty acids. Kim et al., 114 J. Clin. Invest. 823-27 (2004); Kim et al., 277 J. Biol. Chem. 32915-22 (2002); Yu et al., 277 J. Biol. Chem. 50230-36 (2002). […]
Samples of 200 μl serum were collected using heparin-coated glass tubes and spun at 13,000 g in a microcentrifuge to separate the plasma. […] Tissue protein lysates was separated with SDS-PAGE gels and phosphorylated or total proteins were detected with the following antibodies: phospho AKT Serine 473, AKT, insulin receptor, phospho-tyrosine (Santa Cruz Biotech.); IRS-1 and IRS-2 (Upstate); phospho-GSK and GSK (Cell Signaling Tech.); phospho-insulin receptor from (Calbiocbem). […]
A general note: A western blot detects proteins with antibodies after separation by electrophoresis.

Assay [2] can be described thus: Hyperinsulinemic-euglycemic clamp in palmitoleate-infused mice. The class given is in vivo.
Excerpt: as §1
FIG. 7G is the regulation of systemic metabolic responses by adipose-derived lipid hormones (Lipokines). In parallel with a variety of adipokines, specific lipids released from adipocytes in response to physiological stimuli act at remote sites including liver and muscle and regulate systemic lipid and carbohydrate metabolism. Lipid chaperones negatively regulate one of these lipokines, C16:1n7 (palmitoleate), and in the absence of these FABPs, strong flux of palmitoleate from adipose tissue to liver and muscle results in improved metabolic responses.
To investigate whether the increased insulin signaling by elevated serum palmitoleate can be translated into improved glucose metabolism, hyperinsulinemic-euglycemic clamp studies were performed on mice infused with either vehicle or palmitoleate. To enable delivery of lipid at a rate that is compatible with clamp studies, fatty acid:palmitoleate was used instead of TG:palmitoleate. That palmitoleate enhanced both muscle and liver insulin signaling in this setting was confirmed by examining insulin stimulated activation of insulin receptor and AKT (FIG. 21). […] Instead, the increased glucose infusion rate in these mice was driven by enhanced whole body glucose metabolism (FIG. 7F), confirming that the increased insulin signaling by palmitoleate infusion can be directly reflected as improved glycemic control in conscious mice.
INTRALIPID® fatty acid lipid infusion solution with 2 mM triglycerides:palmitate or palmitoleate were prepared using a previously described protocol with modifications (Stein et al., 1997). Briefly, lipids were dissolved in a solvent containing 5% glycerol and 0.72% phosphocholine in 0.9% saline, heated at 80° C. for 10 min, and then sonicated 1 min four times. For TG:palmitoleate, the heating was omitted to avoid oxidization of the lipids. Lipids stay in suspension for a week, so to prevent clogging the preparations must be vortexed well before loading the syringe and tubing. […] Serum FFAs were determined using a commercial kit (Wako Chem.). […]

Setting [3] is: hyperinsulinemic-euglycemic clamp, vs vehicle.

Each structure is given as a SMILES string.

For `CCCCCC/C=C\CCCCCCCC(=O)O` [palmitoleate, C16:1n7-palmitoleate], the “liver insulin signaling (insulin receptor and AKT activation)” value in assay [1] is given as “enhanced”. For the same compound, in assay [2] (setting [3]), the “glucose infusion rate to maintain euglycemia” value is recorded as “significantly higher” and the “whole body glucose metabolism (glucose disposal rate)” value was “enhanced”. Moreover, the “clamped hepatic glucose production” value in assay [2] (hyperinsulinemic-euglycemic clamp, vs vehicle controls) is reported as “Neither basal nor clamped hepatic glucose production was significantly changed”. The “basal hepatic glucose production” value in assay [2] (vs vehicle controls) is listed as “Neither basal nor clamped hepatic glucose production was significantly changed”.
